# Assay results published in US8138168B1 (Takeda Pharmaceutical Company Limited, priority 2007, dated 2012).
# Biological target: T1, Recombinant human renin (Homo sapiens, UniProt P00797)
# T1 construct: isolate the active form (residues 67-406); made in house; host or cells: FreeStyle 293-F cells (transient expression of pcDNA3.1(+)/hREN)
# T1 sequence (P00797 67-406): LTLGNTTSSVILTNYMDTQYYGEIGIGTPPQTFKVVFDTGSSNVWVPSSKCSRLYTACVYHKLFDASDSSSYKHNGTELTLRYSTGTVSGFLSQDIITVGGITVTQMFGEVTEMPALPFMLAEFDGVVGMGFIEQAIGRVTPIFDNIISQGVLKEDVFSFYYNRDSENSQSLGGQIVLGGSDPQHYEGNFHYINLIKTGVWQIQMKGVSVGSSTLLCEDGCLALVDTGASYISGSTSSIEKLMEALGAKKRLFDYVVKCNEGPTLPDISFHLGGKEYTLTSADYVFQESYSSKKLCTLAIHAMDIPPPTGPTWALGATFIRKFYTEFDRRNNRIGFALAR
# Assay: In vitro enzymatic activity assay of renin inhibitors (fluorogenic peptide substrate)
# Assay type: biochemical
# Details: isomers separated by preparative SFC; more or less active isomer as renin inhibitor
# Procedure, shortened: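 Enzyme: recombinant human renin, 3 nM final, 10 min compound pre-incubation at 37 °C; buffer 50 mM Hepes pH 7.4 with 0.1 mg/mL BSA or extra 2% BSA; 5% DMSO.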
row,Compound,Eutomer / distomer designation of the separated stereoisomers
1,"COCCCn1c([C@]2(O)CCCN(C(=O)C[C@H](N)Cc3ccc(Cl)cc3)C2)nc2ccccc21 [Compound 247, (R)-3-amino-4-(4-chlorophenyl)-1-((S)-3-hydroxy-3-(1-(3-methoxypropyl)-1H-benzo[d]imidazol-2-yl)piperidin-1-yl)butan-1-one]",Distomer

# Same assay, conditions: read-out: IC50 of Exemplified Compounds Against Renin
row,Compound,IC50 [nM]
1,"COCCCn1c([C@@H]2CCCN(C(=O)C[C@H](N)Cc3ccc(-c4ccc(N(C)C)nc4)cc3)C2)nc2ccccc21 [Compound 147, (R)-3-amino-4-(4-(6-(dimethylamino)pyridin-3-yl)phenyl)-1-((R)-3-(1-(3-methoxypropyl)-1H-benzo[d]imidazol-2-yl)piperidin-1-yl)butan-1-one]",< 100
2,"COCCCn1c([C@@H]2CCCN(C(=O)[C@@H]3CN(S(=O)(=O)c4ccccc4C(=O)OC)C[C@H]3N)C2)nc2ccccc21 [Compound 373, methyl 2-((3S,4R)-3-amino-4-((R)-3-(1-(3-methoxypropyl)-1H-benzo[d]imidazol-2-yl)piperidine-1-carbonyl)pyrrolidin-l-ylsulfonyl)benzoate]",100 to 1000
3,"COCCCn1c([C@]2(O)CCCN(C(=O)C[C@H](N)Cc3ccc(Cl)cc3)C2)nc2ccccc21 [Compound 247, (R)-3-amino-4-(4-chlorophenyl)-1-((S)-3-hydroxy-3-(1-(3-methoxypropyl)-1H-benzo[d]imidazol-2-yl)piperidin-1-yl)butan-1-one]",> 1000
4,"COCCCn1c([C@@H]2CCCN(C(=O)C[C@H](N)Cc3ccc(-n4c(=O)n(CCOC)c5ccccc54)cc3)C2)nc2ccccc21 [Compound 214, 1-(4-((R)-2-amino-4-((R)-3-(1-(3-methoxypropyl)-1H-benzo[d]imidazol-2-yl)piperidin-1-yl)-4-oxobutyl)phenyl)-3-(2-methoxyethyl)-1H-benzo[d]imidazol-2(3H)-one]",< 100
5,"COCCCn1c([C@@H]2CCCN(C(=O)C[C@H](N)Cc3ccc(-c4ccc(C(=O)NCCOC)cc4Cl)cc3)C2)nc2ccccc21 [Compound 193, 4′-((R)-2-amino-4-((R)-3-(1-(3-methoxypropyl)-1H-benzo[d]imidazol-2-yl)piperidin-1-yl)-4-oxobutyl)-2-chloro-N-(2-methoxyethyl)biphenyl-4-carboxamide]",< 100
6,"COC(=O)[C@@H](Cc1ccccc1)NC(=O)N1CCCC(c2nc3ccccc3[nH]2)C1 (stereo partly drawn) [Compound 13, (2R)-methyl 2-(3-(1H-benzo[d]imidazol-2-yl)piperidine-1-carboxamido)-3-phenylpropanoate]",> 1000
7,"CC(=O)NCCn1c([C@@H]2CCCN(C(=O)C[C@H](N)Cc3ccc(-c4ccc5oc(=O)[nH]c5c4)cc3)C2)nc2ccccc21 [Compound 467, N-(2-(2-((R)-1-((R)-3-amino-4-(4-(2-oxo-2,3-dihydrobenzo[d]oxazol-5-yl)phenyl)butanoyl)piperidin-3-yl)-1H-benzo[d]imidazol-1-yl)ethyl)acetamide]",100 to 1000
8,"COCCCn1c([C@@H]2CCCN(C(=O)C[C@H](N)Cc3ccc(-c4c(C)noc4C)cc3)C2)nc2ccccc21 [Compound 166, (R)-3-amino-4-(4-(3,5-dimethylisoxazol-4-yl)phenyl)-1-((R)-3-(1-(3-methoxypropyl)-1H-benzo[d]imidazol-2-yl)piperidin-1-yl)butan-1-one]",100 to 1000
9,"COCCCn1c([C@@H]2CCCN(C(=O)C[C@H](N)Cc3ccc(-c4ccccc4)cc3)C2)nc2c(C)ccnc21 [Compound 505, (R)-3-amino-4-(biphenyl-4-yl)-1-((R)-3-(3-(3-methoxypropyl)-7-methyl-3H-imidazo[4,5-b]pyridin-2-yl)piperidin-1-yl)butan-1-one]",< 100
10,"CCCc1ccccc1NC(=O)NC[C@@H](N)CC(=O)N1CCC[C@@H](c2nc3ccccc3n2CCCOC)C1 [Compound 286, 1-((S)-2-amino-4-((R)-3-(1-(3-methoxypropyl)-1H-benzo[d]imidazol-2-yl)piperidin-1-yl)-4-oxobutyl)-3-(2-propylphenyl)urea]",100 to 1000
11,"COCCCn1c([C@@H]2CCCN(C(=O)[C@@H]3CN(C(=O)c4cccc(C(=O)OC)c4)C[C@H]3N)C2)nc2ccccc21 [Compound 377, methyl 3-((3S,4R)-3-amino-4-((R)-3-(1-(3-methoxypropyl)-1H-benzo[d]imidazol-2-yl)piperidine-1-carbonyl)pyrrolidine-1-carbonyl)benzoate]",100 to 1000
12,"NC1(C(=O)N2CCCC(c3nc4ccccc4[nH]3)C2)CC1 (stereo not drawn) [Compound 63, (3-(1H-benzo[d]imidazol-2-yl)piperidin-1-yl)(1-aminocyclopropyl)methanone]",> 1000
13,"COCCCn1c([C@@H]2CCCN(C(=O)[C@@H]3CN(S(=O)(=O)c4ccccc4C(F)(F)F)C[C@H]3N)C2)nc2ccccc21 [Compound 402, ((3R,4S)-4-amino-1-(2-(trifluoromethyl)phenylsulfonyl)pyrrolidin-3-yl)((R)-3-(1-(3-methoxypropyl)-1H-benzo[d]imidazol-2-yl)piperidin-1-yl)methanone]",> 1000
14,"COCCCn1c([C@@H]2CCCN(C(=O)C[C@H](N)Cc3ccc(-c4cccnc4F)cc3)C2)nc2ccccc21 [Compound 151, (R)-3-amino-4-(4-(2-fluoropyridin-3-yl)phenyl)-1-((R)-3-(1-(3-methoxypropyl)-1H-benzo[d]imidazol-2-yl)piperidin-1-yl)butan-1-one]",< 100
15,"COCCCn1c(C2CC(C)CN(C(=O)C[C@H](N)Cc3ccc4ccccc4c3)C2)nc2ccccc21 (stereo partly drawn) [Compound 246, (3R)-3-amino-1-(3-(1-(3-methoxypropyl)-1H-benzo[d]imidazol-2-yl)-5-methylpiperidin-1-yl)-4-(naphthalen-2-yl)butan-1-one]",> 1000
16,"COCCCn1c([C@@H]2CCCN(C(=O)C[C@H](N)Cc3ccc(N4CCN(c5ccccc5)C(=O)C4)cc3)C2)nc2ccccc21 [Compound 233, 4-(4-((R)-2-amino-4-((R)-3-(1-(3-methoxypropyl)-1H-benzo[d]imidazol-2-yl)piperidin-1-yl)-4-oxobutyl)phenyl)-1-phenylpiperazin-2-one]",100 to 1000
17,"COCCCn1c([C@@H]2CCCN(C(=O)C[C@H](N)Cc3ccc(-c4ccccc4COC)cc3)C2)nc2ccccc21 [Compound 130, (R)-3-amino-4-(2′-(methoxymethyl)biphenyl-4-yl)-1-((R)-3-(1-(3-methoxypropyl)-1H-benzo[d]imidazol-2-yl)piperidin-1-yl)butan-1-one]",< 100
18,"CC(=O)NCCn1c([C@@H]2CCCN(C(=O)C[C@H](N)Cc3ccc(-c4ccc5c(c4)OCCO5)cc3)C2)nc2ccccc21 [Compound 449, N-(2-(2-((R)-1-((R)-3-amino-4-(4-(2,3-dihydrobenzo[b][1,4]dioxin-6-yl)phenyl)butanoyl)piperidin-3-yl)-1H-benzo[d]imidazol-1-yl)ethyl)acetamide]",100 to 1000
19,"NC(=O)CCn1c([C@@H]2CCCN(C(=O)C[C@H](N)Cc3ccc(-c4ccc5c(c4)OC(F)(F)O5)cc3)C2)nc2ccccc21 [Compound 483, 3-(2-((R)-1-((R)-3-amino-4-(4-(2,2-difluorobenzo[d][1,3]dioxol-5-yl)phenyl)butanoyl)piperidin-3-yl)-1H-benzo[d]imidazol-1-yl)propanamide]",100 to 1000
20,"CC(C)C[C@H](N)C(=O)N1CCCC(c2nc3ccccc3[nH]2)C1 (stereo partly drawn) [Compound 46, (2S)-1-(3-(1H-benzo[d]imidazol-2-yl)piperidin-1-yl)-2-amino-4-methylpentan-1-one]",> 1000
21,"COCCCn1c([C@@H]2CCCN(C(=O)C[C@H](N)Cc3ccc(-c4ccccc4F)cc3)C2)nc2ccccc21 [Compound 160, (R)-3-amino-4-(2′-fluorobiphenyl-4-yl)-1-((R)-3-(1-(3-methoxypropyl)-1H-benzo[d]imidazol-2-yl)piperidin-1-yl)butan-1-one]",< 100
22,"COCCCn1c([C@@H]2CCCN(C(=O)C[C@H](N)CNC(=O)c3cccc4ccccc34)C2)nc2ccccc21 [Compound 311, N-((S)-2-amino-4-((R)-3-(1-(3-methoxypropyl)-1H-benzo[d]imidazol-2-yl)piperidin-1-yl)-4-oxobutyl)-1-naphthamide]",100 to 1000
23,"COCCCn1c([C@@H]2CCCN(C(=O)C[C@H](N)CNC(=O)c3c(Cl)cccc3Cl)C2)nc2ccccc21 [Compound 289, N-((S)-2-amino-4-((R)-3-(1-(3-methoxypropyl)-1H-benzo[d]imidazol-2-yl)piperidin-1-yl)-4-oxobutyl)-2,6-dichlorobenzamide]",100 to 1000
24,"COCCCn1c([C@@H]2CCCN(C(=O)C[C@H](N)Cc3ccc(-c4ccccc4)cc3)C2)nc2cccc(Cl)c21 [Compound 98, (R)-3-amino-4-(biphenyl-4-yl)-1-((R)-3-(7-chloro-1-(3-methoxypropyl)-1H-benzo[d]imidazol-2-yl)piperidin-1-yl)butan-1-one]",< 100
25,"COCCCn1c([C@@H]2CCCN(C(=O)C[C@H](N)Cc3ccc(-c4ccc(N(C)C)cc4)cc3)C2)nc2ccccc21 [Compound 161, (R)-3-amino-4-(4′-(dimethylamino)biphenyl-4-yl)-1-((R)-3-(1-(3-methoxypropyl)-1H-benzo[d]imidazol-2-yl)piperidin-1-yl)butan-1-one]",< 100
26,"COCCCn1c([C@@H]2CCCN(C(=O)C[C@H](N)CNC(=O)c3cccc(-c4noc(C)n4)c3)C2)nc2ccccc21 [Compound 303, N-((S)-2-amino-4-((R)-3-(1-(3-methoxypropyl)-1H-benzo[d]imidazol-2-yl)piperidin-1-yl)-4-oxobuty)-3-(5-methyl-1,2,4-oxadiazol-3-yl)benzamide]",100 to 1000
